This note sets out measurements from ChEMBL document CHEMBL1221404, “Caylobolide B, a macrolactone from symplostatin 1-producing marine cyanobacteria Phormidium spp. from Florida” (J Nat Prod, 2010).

Assay type in all cases: functional, cell-based; call rule not given here
The subject of test [1] is HT-29. In words: Cytotoxicity against human HT-29 cells after 48 hrs by MTT assay. To be noted: HT-29, 48 h. (Tetrazolium assays rely on reduction of a dye to a coloured formazan, in cell work by metabolically active cells.)
The test system of test [2] is HCT-116. In words: Cytotoxicity against human HCT116 cells.
The test system of test [3] is HeLa. Briefly: Cytotoxicity against human HeLa cells after 48 hrs by MTT assay.

Broadly, the IC50 is the concentration at which inhibition is half-maximal. Lower therefore signals inhibition by little substance.

`CC[C@H](C)[C@@H]([C@@H](CC(=O)N1CCC[C@H]1[C@H](OC)[C@@H](C)C(=O)N[C@@H](Cc1ccccc1)c1nccs1)OC)N(C)C(=O)[C@@H](NC(=O)[C@H]([C@@H](C)CC)N(C)C)C(C)C` [SYMPLOSTATIN 1] had an IC50 in test [1] of 0.0015 µM. In other words, the single-digit nanomolar range.

As for `CCCCC(C)C1C[C@@H](O)CCC[C@H](O)C[C@@H](O)C[C@@H](O)CCCC(O)CCCC(O)CCCC(O)CCCC(O)CC(O)CCC/C(C)=C/C(=O)O1` (some centres undefined) [CAYLOBOLIDE A], the AC50 entry in test [2] was “Active”.

On to `CCCCC(C)C1CC(O)CCC[C@H](O)C[C@@H](O)C[C@@H](O)CCCC(O)CCCC(O)CCCC(O)CCC[C@@H](O)C[C@@H](O)CCC/C(C)=C/C(=O)O1` (some centres undefined) [CAYLOBOLIDE B], for which the IC50 is 4.5 µM in test [1] and 12.2 µM in test [3].
